For data set [1] the following is noted: transmission electron microscopy and dynamic light scattering; cited from earlier work.
Data set [2] is described as follows: Peptide degradation by proteinase K. It is filed as in vitro ADME. Conditions: isolated enzyme proteinase k, pH 7.1.

Peptide text beside a SMILES is read from it. * marks the point of attachment. X1 = NC(=O)CCOCCOCCOCCOCCOCCOCCOCCOCCOCCOCCOCCOCCOCCOCCOCCOCCOCCOCCOCCOCCOCCOCCOCCOCCOCCOCCOCCOCCN*

Regarding `CC[C@H](C)[C@H](NC(=O)[C@@H](NC(=O)[C@H](Cc1ccccc1)NC(=O)[C@H](CC(C)C)NC(=O)[C@@H](N)CC(C)C)C(C)C)C(=O)N[C@H](C(=O)N[C@@H](CC(C)C)C(=O)N1CCC[C@H]1C(=O)N[C@@H](Cc1ccccc1)C(=O)N[C@@H](Cc1c[nH]c2ccccc12)C(=O)N[C@@H](C)C(=O)N[C@H](C(=O)N[C@@H](CC(=O)O)C(=O)N[C@@H](C)C(=O)N[C@H](C(=O)N[C@@H](C)C(=O)N[C@@H](CC(N)=O)C(=O)N[C@@H](Cc1c[nH]c2ccccc12)C(=O)N[C@@H](Cc1ccc(O)cc1)C(=O)N[C@@H](Cc1ccccc1)C(=O)NCC(=O)N[C@@H](CC(N)=O)C(=O)N[C@@H](CC(=O)O)C(=O)N[C@@H](CC(=O)O)C(=O)NCCOCCOCCOCCOCCOCCOCCOCCOCCOCCOCCOCCOCCOCCOCCOCCOCCOCCOCCOCCOCCOCCOCCOCCOCCOCCOCCOCCOCCC(N)=O)C(C)C)C(C)C)[C@@H](C)O` [x4-2-6] (H-LLFVITLPFWAVDAVANWYFGNDD-X1), the “diameter of self-assembled nanospheres” value in data set [1] is on record as 10 nm. For the same molecule, in data set [2], the half-life came to 11.8 ± 1.8 min.

Molecule `CC[C@H](C)[C@H](NC(=O)[C@@H](NC(=O)[C@@H](N)Cc1ccccc1)C(C)C)C(=O)N[C@H](C(=O)N[C@@H](CC(C)C)C(=O)N1CCC[C@H]1C(=O)N[C@@H](Cc1ccccc1)C(=O)N[C@@H](Cc1c[nH]c2ccccc12)C(=O)N[C@@H](C)C(=O)N[C@H](C(=O)N[C@@H](CC(=O)O)C(=O)N[C@@H](C)C(=O)N[C@H](C(=O)N[C@@H](C)C(=O)N[C@@H](CC(N)=O)C(=O)N[C@@H](Cc1c[nH]c2ccccc12)C(=O)N[C@@H](Cc1ccc(O)cc1)C(=O)N[C@@H](Cc1ccccc1)C(=O)NCC(=O)N[C@@H](CC(N)=O)C(=O)N[C@@H](CC(=O)O)C(=O)N[C@@H](CC(=O)O)C(=O)NCCOCCOCCOCCOCCOCCOCCOCCOCCOCCOCCOCCOCCOCCOCCOCCOCCOCCOCCOCCOCCOCCOCCOCCOCCOCCOCCOCCOCCC(N)=O)C(C)C)C(C)C)[C@@H](C)O` [x4-2-9] (H-FVITLPFWAVDAVANWYFGNDD-X1) gave a half-life in data set [2] of 2.9 ± 1.2 min.

Source of the values: publication PMC3950977 (Nanotechnology, 2011).
